Experiments:
[1] = target: T1, Aryl hydrocarbon receptor (Rattus norvegicus, UniProt P41738); conditions: for EC10, linear transformed / EC10, linear / logEC10: Bioassay AhR, dosing range all; for EC10, linear: linear model fit; for logEC10: log-logistic model fit; for log(1/EC10) AhR: input of the ToxPi score, values up to 1.00; for SR-ScoreAhR: SR-Score, sigma k=1, x=5; for Specificity ratio (SRbaseline) SRAhR: against baseline cytotoxicity; for EC10, AhR: effect
T1 sequence (P41738 10-853): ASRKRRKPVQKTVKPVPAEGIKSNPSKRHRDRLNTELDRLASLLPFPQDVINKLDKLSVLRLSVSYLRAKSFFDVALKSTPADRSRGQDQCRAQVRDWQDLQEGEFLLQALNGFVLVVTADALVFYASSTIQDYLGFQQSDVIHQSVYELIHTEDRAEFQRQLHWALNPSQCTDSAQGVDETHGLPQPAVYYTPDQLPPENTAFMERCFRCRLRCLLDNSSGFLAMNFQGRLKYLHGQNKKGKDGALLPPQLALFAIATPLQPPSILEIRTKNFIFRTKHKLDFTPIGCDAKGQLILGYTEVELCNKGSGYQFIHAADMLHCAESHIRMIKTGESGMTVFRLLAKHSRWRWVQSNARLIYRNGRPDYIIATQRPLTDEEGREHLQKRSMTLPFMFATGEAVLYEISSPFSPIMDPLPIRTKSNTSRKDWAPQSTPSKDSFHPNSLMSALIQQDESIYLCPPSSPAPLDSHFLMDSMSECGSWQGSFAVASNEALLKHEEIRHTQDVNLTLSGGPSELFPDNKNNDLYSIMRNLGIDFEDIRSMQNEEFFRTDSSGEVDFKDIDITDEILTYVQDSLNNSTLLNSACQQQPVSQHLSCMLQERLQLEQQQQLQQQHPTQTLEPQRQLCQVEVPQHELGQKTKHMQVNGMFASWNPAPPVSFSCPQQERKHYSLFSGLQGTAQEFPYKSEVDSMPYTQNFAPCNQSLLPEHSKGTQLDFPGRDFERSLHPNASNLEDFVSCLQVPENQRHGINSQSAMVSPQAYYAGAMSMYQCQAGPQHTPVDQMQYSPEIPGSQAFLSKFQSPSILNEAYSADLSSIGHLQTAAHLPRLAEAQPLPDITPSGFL
Description: All bioassay media components and the ERα-UAS-bla GripTite and PPARγ-UAS-bla cells were obtained from Thermo Fisher Scientific (Waltham, MA, USA). AREc32 reporter gene cells based on MCF7 were provided by C. Roland Wolf (Cancer Research UK); AhR CALUX cells (H4L7.5c2 derived from H4IIe) were provided by Michael Denison (UC Davis, USA); and SH-SY5Y cells were purchased from Sigma-Aldrich.
Cell culture conditions and bioassay protocols including response detection are provided in Text S2.1–2.4 and Table S3. − Cell viability was determined from cell confluency using an IncuCyte S3 Live-Cell Analysis System (Sartorius AG, Essen, Germany) before and after exposure, except for SH-SY5Y cells (live–dead staining with Nuclear Green LcS1 and propidium iodide, Abcam, UK). For metabolic activation experiments, cell viability was assessed using the ToxBLAzer DualScreen Kit (Thermo Fisher Scientific) to capture the remaining toxicity in ERα-UAS-bla GripTite after treatment with the aCYP catalyst (details in Text S2.4).
For ARE, the concentration that triggered an induction ratio of 1.5 (ECIR1.5) was used as the benchmark value, as detailed in Text S2.5. IC10 values also served as a threshold for data analysis in all assays; only concentrations below IC10 were considered when deriving EC10 or ECIR1.5. […]
S2: Cell culture and bioassays
S2.1: Cell Culturing Conditions
All suppliers and sources are given in detail in SI-Excel S3. The bioassay media for the different assays were prepared as follows: Assay medium for ER alpha-UAS-bla GripTite (ERα) and PPAR gamma-UAS-bla 293H (PPARγ) was prepared with 98% Opti-MEM, supplemented with 2% charcoal-stripped FBS, and 100 U/mL penicillin-streptomycin. MitoOxTox and AhR assay medium was comprised of 90% DMEM with GlutaMAX, supplemented with 10% FBS, and 100 U/mL penicillin-streptomycin. Neurotoxicity assay medium consisted of the neurobasal […]
(1 picture or pasted object on this page, not shown here) […]
medium, supplemented with 2% B-27 Supplement and 2 mM GlutaMAX Supplement. SH - SY5Y cells were differentiated with 10 µM all-trans retinoic acid prior to the assay.
S2.2: Cell Seeding and Incubation. For all bioassays, cell suspensions in the respective assay medium were dispensed into each well of 384-well plates using a MultiFlo Dispenser (Biotek, (now Agilent), Winooski, VT, U.S.). After seeding, the plates were incubated at 37° C and 5% CO₂ for […]. The final cell densities and plate types were as follows: Black poly-D-lysine coated 384-well plates (Product No. 354663, Corning Inc., NYC, U.S.) were used for PPARγ:
6500 cells/well, ERα: 5000 cells/well. White 384-well plates with a clear bottom (Product No.
781098, Greiner, Kremsmünster, Austria) were utilized for the MitoOxTox assay: 2650

[2] = Acidity constant (pKa) measurement, Sirius T3 UV-metric, and speciation at pH 7.4; conditions: for Negative form (pH = 7.40) / Neutral form (pH = 7.40) / αneutral % (fraction of neutral species) / Double negative form (pH = 7.40): from experimental pKa; for αneutral % (fraction of neutral species): pH 7.4; for pKa: pKa (Acid)
Method: Physicochemical properties provide input parameters for the baseline toxicity model. Acidity constants (pK a) and octanol–water partition constants of the neutral species (K ow) were measured with a Sirius T instrument from Pion Inc. (Sussex, UK) (Text S1.2 and Table S1). A detailed description of the pK a and K ow measurements can be found in literature. , […]
S1.2: pKa and log Kow measurements […]
titrator (Pion Inc., Sussex, U.K.). A detailed description of the experimental procedure is available in the literature.1 In brief, each sample was prepared by mixing 5 µL of a 10 mM dimethyl sulfoxide (DMSO) stock solution with 25 µL of a phosphate buffer solution (14.4 mM […]
A reference vial containing 5 µL of DMSO
(Roth, A994-100 ML) and 25 µL of phosphate buffer was analyzed alongside each sample.
The pKa values were determined using the automated UV-metric pKa protocol within the Sirius T3 Control software (version 2.0.0.0.). Each sample was subjected to three consecutive […]
from 2 to 12 by stepwise addition of 0.5 M HCl or 0.5 M potassium hydroxide while recording […]
UV absorbance. […]
To ensure reproducibility, measurements were conducted on at least two

[3] = phosphate buffer with […] KCl, Sirius T3 titrator, experimental, this study
[4] = phosphate buffer with […] KCl, Sirius T3 titrator, second pKa column, experimental, this study

Row | Compound | EC10, linear transformed [1] | EC10, linear [1] | logEC10 [1] | log(1/EC10) AhR [1] | Negative form (pH = 7.40) [2] | Neutral form (pH = 7.40) [2] | αneutral % (fraction of neutral species) [2] | Double negative form (pH = 7.40) [2] | further results
1 | O=C(OCc1ccccc1)c1ccc(O)cc1 [BzPB, Benzyl 4-hydroxybenzoate] | 1.73E-04 | no effect | no effect | 0.80 | 0.599% | 99% | 99% |  | pKa [2, 3]: 9.62
2 | CC1(C)[C@H](O)C(C)(C)[C@H]1O [Trans TMCD] | 8.49E-03 | no effect | -2.00 |  |  |  |  |  | 
3 | C=CCOc1ccc(S(=O)(=O)c2ccc(O)cc2)cc1 [BPS-MAE, 4-[[4-(Allyloxy)phenyl]sulfonyl]phenol] |  | no effect | no effect | 0.71 |  |  |  |  | 
4 | Oc1ccc(C(c2ccc(O)cc2)(C(F)(F)F)C(F)(F)F)cc1 [BPAF, 4,4'-(1,1,1,3,3,3-Hexafluoropropane-2,2-diyl)diphenol] |  | no effect | no effect | 0.92 | 4.47% | 95% |  | 0.0417% | pKa (Acid) [2]: 8.73; pKa [2]: 9.43
5 | Cc1ccc(S(=O)(=O)NC(=O)Nc2ccc(Cc3ccc(NC(=O)NS(=O)(=O)c4ccc(C)cc4)cc3)cc2)cc1 [BTUM, 4,4'-Bis(p-tolylsulfonylureido)diphenylmethane] |  | no effect | no effect |  | 0.47% | 0.0007% | 0.0007% | 99.53% | pKa [2, 4]: 5.07; pKa [2, 3]: 4.59
6 | CC(C)(c1cc(Br)c(O)c(Br)c1)c1cc(Br)c(O)c(Br)c1 [TBBPA, 3,3',5,5'-Tetrabromobisphenol A] |  |  |  |  | 39% | 4.58% | 5% | 56% | pKa [2, 4]: 7.24; pKa [2, 3]: 6.47
7 | CC(c1ccccc1)(c1ccc(O)cc1)c1ccc(O)cc1 [BPAP, 4,4'-(1-Phenylethylidene)bisphenol] |  | no effect | no effect |  | 2% | 98% |  | 0.00503% | pKa (Acid) [2]: 9.99; pKa [2]: 9.1
8 | CC(C)(c1ccc(O)cc1)c1ccc(O)cc1 [BPA, 4,4'-(Propane-2,2-diyl)diphenol, reference compound] | 3.80E-04 | 2.64E-04 | no effect | 0.79 |  | 100% | 100% | 9.99e-6% | EC10, AhR (M) [1]: 2.64 × 10^–4 M; SR-ScoreAhR [1]: 0.00737; Specificity ratio (SRbaseline) SRAhR [1]: 0.10; EC10, AhR [1]: 264 µM; Specificity ratio (SRcytotoxicity) SRAhR ([1]; rat, 24 h): 0.00; SR (AhR) ([1]; specificity ratio): ≤ 10; pKa (Acid) [2]: 9.85; pKa [2]: 8.78
9 | Cc1cc(Cc2cc(C)c(O)c(C)c2)cc(C)c1O [TMBPF, Bis(3,5-dimethyl-4-hydroxyphenyl)methane] | 1.03E-04 | no effect | no effect |  |  |  |  |  | 
10 | O=S(=O)(c1ccc(O)cc1)c1ccccc1O [2,4-BPS, 2,4'-Dihydroxydiphenyl sulfone] |  | no effect | no effect | 0.74 | 52% | 43% | 43% | 5% | pKa (Acid) [2]: 8.43; pKa [2]: 7.31
11 | Cc1ccc(S(=O)(=O)NC(=O)Nc2cccc(OS(=O)(=O)c3ccc(C)cc3)c2)cc1 [Pergafast, N-(p-toluenesulfonyl)-N'-(3-(p-toluenesulfonyloxy)phenyl)urea] | 2.45E-05 | 2.29E-05 | -4.61 |  | 100% | 0.089% | 0.089% |  | EC10, AhR (M) [1]: 2.29 × 10^–5 M; SR-ScoreAhR [1]: 0.73; Specificity ratio (SRbaseline) SRAhR [1]: 6.02; EC10, AhR [1]: 22.9 µM; pKa [2, 3]: 4.35
12 | CC1(C)C(O)C(C)(C)C1O (racemic) [r-TMCD, 2,2,4,4-Tetramethyl-1,3-cyclobutanediol (racemate)] |  | no effect | no effect |  | 0% | 100% | 100% | 0% | 
13 | CC(C)CC(C)(c1ccc(O)cc1)c1ccc(O)cc1 [BP-MIBK, 4,4'-(1,3-Dimethylbutylidene)diphenol] |  | no effect | no effect | 0.86 |  |  |  |  | 
14 | CC(C)(c1ccc(OCC2CO2)cc1)c1ccc(OCC2CO2)cc1 (stereo not drawn) [BADGE, Bisphenol A diglycidyl ether] |  | no effect | no effect |  | 0% | 100% | 100% | 0% | 
15 | Oc1ccc(C2(c3ccc(O)cc3)CCCCC2)cc1 [BPZ, 1,1'-Bis(4-hydroxyphenyl)cyclohexane] |  |  |  |  | 1.11% | 99% | 99% | 0.00202% | pKa ([2]; second pKa column, experimental, this study): 10.1; pKa ([2]; experimental, this study): 9.35

From paper PMC12392461, “Beyond Estrogenicity: A Comparative Assessment of Bisphenol A and Its Alternatives in In Vitro Assays Questions Safety of Replacements” (Environmental Science & Technology, 2025)
